For 13 compounds, melting point results are on record in US6936608B2, “Imidazo-triazine derivatives as ligands for GABA receptors” (Merck Sharp & Dohme Ltd., priority 2000, dated 2005).

Structures can show the parent of a compound that is named as a salt.

One may read the melting point as the temperature of the solid-liquid transition. `CC(C)(F)c1cnn2c(-c3ccc(F)c(-c4cccnc4)c3)cnc2n1` (as salt: hydrochloride) [Example 3, 3-(1-Fluoro-1-methylethyl)-7-[4-fluoro-3-(pyridin-3-yl)phenyl]imidazo[1,2-b][1,2,4]triazine]: the melting point lay within 113 to 126 °C.
As for `Cc1cnn2c(-c3cccc(-c4ccccc4C#N)c3)cnc2n1` [Example 1, 3′-(3-methylimidazo[1,2-b][1,2,4]triazin-7-yl)biphenyl-2-carbonitrile], the figure is 211 to 216 °C; as for `N#Cc1ccccc1-c1cc(-c2cnc3nc(C(F)(F)F)cnn23)ccc1F` [Example 2, 2′-Fluoro-5′-(3-trifluoromethylimidazo[1,2-b][1,2,4]triazin-7-yl)biphenyl-2-carbonitrile], 168 to 174 °C.
As for `N#Cc1ccccc1-c1cc(-c2cnc3nccnn23)ccc1F` [Example 5, 2′-Fluoro-5′-(imidazo[1,2-b][1,2,4]triazin-7-yl)biphenyl-2-carbonitrile], the figure is 211 to 215 °C; as for `Fc1ccc(-c2cnc3nc(C(F)(F)F)cnn23)cc1-c1ccccn1` [Example 6, 7-[4-Fluoro-3-(pyridin-2-yl)phenyl]-3-trifluoromethylimidazo[1,2-b][1,2,4]triazine], 128 to 131 °C; as for `N#Cc1ccccc1-c1cccc(-c2cnc3nc(C(F)(F)F)cnn23)c1F` [Example 7, 2′-Fluoro-3′-(3-trifluoromethylimidazo[1,2-b][1,2,4]triazin-7-yl)biphenyl-2-carbonitrile], 167 to 168 °C.
With `CC(C)(O)c1cnn2c(-c3ccc(F)c(-c4cccnc4)c3)cnc2n1` [Example 14, 2-{7-[4-Fluoro-3-(pyridin-3-yl)phenyl]imidazo[1,2-b][1,2,4]triazin-3-yl}propan-2-ol] the figure was 199 to 200 °C; with `CC(C)(O)c1cnn2c(-c3ccc(F)c(-c4ccncc4)c3)cnc2n1` [Example 15, 2-{7-[4-Fluoro-3-(pyridin-4-yl)phenyl]imidazo[1,2-b][1,2,4]triazin-3-yl}propan-2-ol], 233 to 237 °C; with `CC(C)(O)c1cnn2c(-c3ccc(F)c(-c4ccccc4C#N)c3)cnc2n1` [Example 16, 2′-Fluoro-5′-[3-(1-hydroxy-1-methylethyl)imidazo[1,2-b][1,2,4]triazin-7-yl]biphenyl-2-carbonitrile], 187 °C.
`CC(C)(O)c1cnn2c(-c3cccc(-c4ccncc4)c3F)cnc2n1` [Example 19, 2-{7-[2-Fluoro-3-(pyridin-4-yl)phenyl]imidazo[1,2-b][1,2,4]triazin-3-yl}propan-2-ol] showed a melting point of 221 to 223 °C.
Take `CC(C)(O)c1cnn2c(-c3cccc(-c4ccccc4C#N)c3)cnc2n1` [Example 22, 3′-[3-(1-Hydroxy-1-methylethyl)imidazo[1,2-b][1,2,4]triazin-7-yl]biphenyl-2-carbonitrile]: the melting point amounted to 166 °C.
For `CC(C)(F)c1cnn2c(-c3ccc(F)c(-c4c(F)cccc4C#N)c3)cnc2n1` [Example 25, 6,2′-Difluoro-5′-[3-(1-fluoro-1-methylethyl)imidazo[1,2-b][1,2,4]triazin-7-yl]biphenyl-2-carbonitrile], the melting point lay within 187 to 188 °C.
With `CC(C)(O)c1cnn2c(-c3ccc(F)c(-c4ccc(F)cn4)c3)cnc2n1` [Example 29, 2-{7-[4-Fluoro-3-(5-fluoropyridin-2-yl)phenyl]imidazo[1,2-b][1,2,4]triazin-3-yl}propan-2-ol] the figure was 222 °C.
